Assays:
[1] = tested on: P. aeruginosa pyocyanin production; assay: Pyocyanin assay; type: cell-based, P. aeruginosa PA14; conditions: Pseudomonas aeruginosa, PA14, 16 h, read-out: IC50-value towards pyocyanin production, PA14 in PPGAS medium, 16 h
Outline: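 PA14 in PPGAS medium from OD600 0.02 grown 16 h at 37 °C, 200 rpm, with compounds. Pyocyanin extracted with chloroform, back-extracted into 0.2 M HCl, OD520 normalised to OD600.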

[2] = Metabolic stability in mouse liver microsomes (MLM); type: in vitro ADME; conditions: 1 μM compound, 0.5 mg/mL MLM, 1 mM NADPH, 37° C., read-out: half-life (t1/2) towards MLM
Protocol: For the evaluation of phase I metabolic stability, the compound (1 μM) was incubated with 0.5 mg/mL MLM (Corning) and 1 mM NADPH at 37° C. for 0, 5, 10, 15 and 30 min. The metabolic stability of Verapamil, Diphenhydramine and Benzydamine (1 μM each) were determined in parallel to confirm the enzymatic activity of the MLM. The incubation was stopped by addition of 2 volumes of acetonitrile containing internal standard (1 μM Leucine Enkephaline). Samples were centrifuged (15 min, 3,500 rpm). Concentration of the remaining test compound at the different time points was analyzed by HPLC-MS/MS and used to determine half-life (t1/2).

[3] = Kinetic Turbidimetric Aqueous Solubility at room temperature for 5 min; type: physicochemical; conditions: PBS buffer, kinetic from dmso stock, 2% DMSO
Outline: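 Compound diluted in PBS across typically 0.4–200 μM (final DMSO 2%), held 5 min at room temperature. Turbidity read as absorbance at 620 nm against vehicle control. Four-parameter sigmoidal fit of normalized absorbances with AUC calculation gives Log S.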

[4] = biological target: PqsR (Pseudomonas aeruginosa, UniProt Q9I4X0); assay: E. coli based β-galactosidase reporter gene assay (PqsR inverse agonistic activity); type: cell-based; design: expressed in transfected cells; host or cells: Escherichia coli DH5α
PqsR, sequence (Q9I4X0 whole entry): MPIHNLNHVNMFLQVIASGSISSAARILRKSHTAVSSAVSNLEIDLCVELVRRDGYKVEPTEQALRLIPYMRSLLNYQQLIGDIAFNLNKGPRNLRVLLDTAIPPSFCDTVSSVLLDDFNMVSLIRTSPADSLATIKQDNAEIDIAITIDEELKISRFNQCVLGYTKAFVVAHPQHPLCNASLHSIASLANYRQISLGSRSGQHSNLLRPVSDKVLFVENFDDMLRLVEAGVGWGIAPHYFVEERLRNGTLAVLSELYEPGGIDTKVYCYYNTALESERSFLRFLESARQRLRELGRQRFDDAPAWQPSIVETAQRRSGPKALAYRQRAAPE
Outline: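 E. coli DH5α carrying pEAL08-2 (tac-driven pqsR with pqsA-lacZ) was grown to OD600 0.2 and incubated with 0.001–10 μM compound plus 50 nM PQS for 2.5 h at 37 °C. β-Galactosidase activity was measured by ONPG conversion in permeabilized cells and normalized between the no-PQS and solvent controls. IC50 came from concentration variation.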

SMILES | IC50 [1] | half-life at 1 μM [2] | solubility at 5 min [3] | IC50 [4]
O=C(c1ccccc1)c1ccc(-n2cc(CNc3ccnc(C(F)(F)F)c3)nn2)cc1 [Compound 004, Phenyl(4-(4-(((2-(trifluoromethyl)pyridin-4-yl)amino)methyl)-1H-1,2,3-triazol-1-yl)phenyl)methanone] | 1 to 5 µM | > 1 h | > 25 µM | ≤ 0.05 µM
FC(F)(F)c1cc(NCc2cn(-c3ccc(Oc4ccccc4)cc3)nn2)cc(I)n1 [Compound 007, 2-Iodo-N-((1-(4-phenoxyphenyl)-1H-1,2,3-triazol-4-yl)methyl)-6-(trifluoromethyl)pyridin-4-amine] | 0.251 to 1 µM | 0.517 to 1 h |  | ≤ 0.05 µM
FC(F)(F)c1cc(NCc2cn(-c3ccc(Oc4ccc(Cl)cc4)cc3)nn2)ccn1 [Compound 037, N-((1-(4-(4-Chlorophenoxy)phenyl)-1H-1,2,3-triazol-4-yl)methyl)-2-(trifluoromethyl)pyridin-4-amine] |  | > 1 h | > 10 µM | ≤ 0.05 µM
FC(F)(F)c1cc(NCc2cn(-c3ccc(Br)cc3)nn2)ccn1 [Compound 039, N-((1-(4-Bromophenyl)-1H-1,2,3-triazol-4-yl)methyl)-2-(trifluoromethyl)pyridin-4-amine] |  | 0.517 to 1 h | > 50 µM | 0.251 to 1 µM
FC(F)(F)c1cc(NCc2cn(-c3ccc(-n4ccc5ccccc54)cc3)nn2)ccn1 [Compound 040, N-((1-(4-(1H-Indol-1-yl)phenyl)-1H-1,2,3-triazol-4-yl)methyl)-2-(trifluoromethyl)pyridin-4-amine] | 0.251 to 1 µM | 0.517 to 1 h | > 25 µM | 0.051 to 0.25 µM
N#Cc1cc(NCc2cn(-c3ccc(Oc4ccccc4)cc3)nn2)ccn1 [Compound 041, 4-(((1-(4-Phenoxyphenyl)-1H-1,2,3-triazol-4-yl)methyl)amino)picolinonitrile] |  | 0.517 to 1 h | > 10 µM | ≤ 0.05 µM
FC(F)(F)c1cc(NCc2cn(-c3ccc(-n4cnc5ccccc54)cc3)nn2)ccn1 [Compound 045, N-((1-(4-(1H-benzo[d]imidazol-1-yl)phenyl)-1H-1,2,3-triazol-4-yl)methyl)-2-(trifluoromethyl)pyridin-4-amine] | 1 to 5 µM | 0.517 to 1 h | > 25 µM | 0.051 to 0.25 µM
FC(F)(F)c1cc(NCc2cn(-c3ccc(-n4ncc5ccccc54)cc3)nn2)ccn1 [Compound 046, N-((1-(4-(1H-indazol-1-yl)phenyl)-1H-1,2,3-triazol-4-yl)methyl)-2-(trifluoromethyl)pyridin-4-amine] | 0.251 to 1 µM | 0.517 to 1 h | > 25 µM | 0.051 to 0.25 µM
Clc1cc(NCc2cn(-c3ccc(Oc4ccccc4)cc3)nn2)cc(Cl)n1 [Compound 048, 2,6-Dichloro-N-((1-(4-phenoxyphenyl)-1H-1,2,3-triazol-4-yl)methyl)pyridin-4-amine] | ≤ 0.25 µM | 0.517 to 1 h |  | ≤ 0.05 µM
Oc1cc(NCc2cn(-c3ccc(Oc4ccccc4)cc3)nn2)cc(C(F)(F)F)n1 [Compound 050, 4-(((1-(4-Phenoxyphenyl)-1H-1,2,3-triazol-4-yl)methyl)amino)-6-(trifluoromethyl)pyridin-2-ol] | 1 to 5 µM | > 1 h | ≥ 100 µM | ≤ 0.05 µM
Nc1cc(SCc2cnc(-c3ccc(Oc4ccccc4)cc3)s2)nc(C(F)(F)F)n1 [Compound 068, 6-(((2-(4-phenoxyphenyl)thiazol-5-yl)methyl)thio)-2-(trifluoromethyl)pyrimidin-4-amine] |  | > 1 h | > 10 µM | 
COc1ccc(-c2ncc(CSc3cc(N)nc(C(F)(F)F)n3)s2)cc1Cl [Compound 069, 6-(((2-(3-chloro-4-methoxyphenyl)thiazol-5-yl)methyl)thio)-2-(trifluoromethyl) pyrimidin-4-amine] |  | > 1 h | > 25 µM | 
FC(F)(F)c1cc(NCc2cnc(-c3ccc(Cl)nc3)s2)ccn1 [Compound 073, N-((2-(6-Chloropyridin-3-yl)thiazol-5-yl)methyl)-2-(trifluoromethyl)pyridin-4-amine] | 1 to 5 µM | > 1 h | ≥ 100 µM | 0.051 to 0.25 µM
FC(F)(F)c1cc(NCc2cnc(-c3ccc(Oc4ccccc4)cc3)s2)cc(Cl)n1 [Compound 092, 2-Chloro-N-((2-(4-phenoxyphenyl)thiazol-5-yl)methyl)-6-(trifluoromethyl)pyridin-4-amine] | 0.251 to 1 µM | 0.517 to 1 h |  | ≤ 0.05 µM
Clc1cc(NCc2cnc(-c3ccc(Oc4ccccc4)cc3)s2)ccn1 [Compound 093, 2-Chloro-N-((2-(4-phenoxyphenyl)thiazol-5-yl)methyl)pyridin-4-amine] | 0.251 to 1 µM | 0.517 to 1 h |  | ≤ 0.05 µM
FC(F)(F)c1cc(NCc2ccc(-c3ccc(Cl)nc3)cn2)ccn1 [Compound 098, N-((6′-Chloro-[3,3′-bipyridin]-6-yl)methyl)-2-(trifluoromethyl)pyridin-4-amine] |  | > 1 h | ≥ 100 µM | 0.051 to 0.25 µM
FC(F)(F)c1cc(NCc2ccc(-c3ccc(Oc4ccccc4)nc3)cn2)ccn1 [Compound 100, N-((6′-Phenoxy-[3,3′-bipyridin]-6-yl)methyl)-2-(trifluoromethyl)pyridin-4-amine] |  | 0.517 to 1 h | > 25 µM | 0.051 to 0.25 µM
FC(F)(F)c1cc(NCc2ccc(-c3cnc(Cl)c(Cl)c3)cn2)ccn1 [Compound 102, N-((5′,6′-Dichloro-[3,3′-bipyridin]-6-yl)methyl)-2-(trifluoromethyl)pyridin-4-amine] | 0.251 to 1 µM | 0.517 to 1 h | > 50 µM | 0.051 to 0.25 µM
FC(F)(F)c1cc(NCc2ccc(-c3cccc(Oc4ccccc4)c3)cn2)ccn1 [Compound 103, N-((5-(3-Phenoxyphenyl)pyridin-2-yl)methyl)-2-(trifluoromethyl)pyridin-4-amine] | 1 to 5 µM | 0.517 to 1 h |  | 0.251 to 1 µM
FC(F)(F)c1cc(NCc2cnc(-c3ccc(Oc4ccccc4)cc3)nc2)ccn1 [Compound 105, N-((2-(4-Phenoxyphenyl)pyrimidin-5-yl)methyl)-2-(trifluoromethyl)pyridin-4-amine] | 0.251 to 1 µM | 0.517 to 1 h | > 10 µM | 0.051 to 0.25 µM
CC(C)Oc1ccc(-c2ncc(CNc3ccnc(C(F)(F)F)c3)cn2)cc1 [Compound 106, N-((2-(4-isopropoxyphenyl)pyrimidin-5-yl)methyl)-2-(trifluoromethyl)pyridin-4-amine] | 0.251 to 1 µM | > 1 h | > 25 µM | 0.051 to 0.25 µM
FC(F)(F)c1cc(NCc2nc3cc(Cl)c(Cl)cc3[nH]2)ccn1 [Compound 121, N-((5,6-Dichloro-1H-benzo[d]imidazol-2-yl)methyl)-2-(trifluoromethyl)pyridin-4-amine] |  | 0.517 to 1 h | ≥ 100 µM | 0.251 to 1 µM
FC(F)(F)c1cc(NCc2cc(-c3ccc(Oc4ccccc4)cc3)no2)ccn1 [Compound 139, N-((3-(4-phenoxyphenyl)isoxazol-5-yl)methyl)-2-(trifluoromethyl)pyridin-4-amine] |  | 0.517 to 1 h |  | ≤ 0.05 µM
Fc1ccccc1Oc1ccc(-n2cc(CNc3ccnc(C(F)(F)F)c3)nn2)cc1 [Compound 144, N-((1-(4-(2-fluorophenoxy)phenyl)-1H-1,2,3-triazol-4-yl)methyl)-2-(trifluoromethyl)pyridin-4-amine] | ≤ 0.25 µM | 0.517 to 1 h | > 25 µM | ≤ 0.05 µM
FC(F)(F)c1cc(NCc2cn(-c3ccc(-n4ncc5ccncc54)c(Cl)c3)nn2)ccn1 [Compound 147] | 0.251 to 1 µM | 0.517 to 1 h | > 50 µM | ≤ 0.05 µM
Fc1ccc(Oc2ccc3[nH]c(CNc4ccnc(C(F)(F)F)c4)nc3c2)cc1 [Compound 172, N-((5-(4-fluorophenoxy)-1H-benzo[d]imidazol-2-yl)methyl)-2-(trifluoromethyl)pyridin-4-amine] | 0.251 to 1 µM | 0.517 to 1 h | > 25 µM | 
Nc1cc(OCc2nc3cc(Oc4ccccc4)ccc3[nH]2)nc(C(F)(F)F)n1 [Compound 181, 6-((5-phenoxy-1H-benzo[d]imidazol-2-yl)methoxy)-2-(trifluoromethyl)pyrimidin-4-amine] |  | > 1 h | > 50 µM | 0.051 to 0.25 µM
